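A five-concentration, 48-hour dose response in 96-well plates underlies each endpoint, interpolated linearly between surrounding concentrations. GI50 = concentration required for 50% inhibition of growth. TGI: total growth inhibition.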

For the first experiment, the system named is KM12 colon. Description: inhibition of tumour cell growth, NCI panel, 48 h.
`Cc1ccc2c(c1)nc(N)n[n+]2[O-]` gave a TGI above 100 µM.
For `Cc1cn(C2CC(N)C(CN)O2)c(=O)[nH]c1=O` (stereo not drawn), the TGI was above 100 µM.
On the same count and under the same terms, the result for `CC(C)CC(N)C(=O)OCN1C(=O)C2C3C=CC(C2C1=O)C1C2C(=O)N(COC(=O)C(N)CC(C)C)C(=O)C2C31` (stereo not drawn) reads above 100 µM; that for `O=C1CC(O)c2c1csc2Br` (stereo not drawn), 43.3 µM.
On to `CCCCCCCCCC[C@@H](O)[C@H]1CC[C@H]([C@H]2CC[C@H]([C@H](O)CCCCCCCCCC[C@@H]3CC(CC(C)=O)C(=O)O3)O2)O1` (stereo partly drawn), for which the GI50 is 3.34 µM and the TGI is above 50 µM.
In the case of `CC(C)(C)C(=O)C(CC(=O)c1ccccc1)C(=O)C(C)(C)C`, the TGI was above 100 µM.
`COC(=O)c1cc(CC(C)C)c2c(c1)[nH]c1ccccc12`: the TGI is above 100 µM.
In turn, `Clc1nc(Cl)nc(NC23CC4CC(CC(C4)C2)C3)n1` had a TGI of 32.2 µM.
The compound `CCOC(=O)c1cc2c([N+](=O)[O-])c(NC(C)=O)ccc2s1` registered a TGI above 100 µM.
In turn, `C[N+](C)(C)CC(=O)N/N=c1\cc(C(=O)Nc2ccc(N=O)cc2C#N)oc2cc(O)ccc12` had a TGI above 100 µM.
`CCOC(=O)c1cc(=C2\CCN(CC(C)CC)C2=S)/c(=C(/O)CC)[nH]1` (stereo not drawn) showed a TGI of 32 µM.
As for `Cc1ccc2c(c1C)CC1(Cc3c(ccc4c3CCC4)C1=O)C2=O` (stereo not drawn), the TGI was above 100 µM.
`N#CCCN(c1ccc(C=Nc2cccc([N+](=O)[O-])c2)cc1)S(=O)(=O)c1ccccc1`: the TGI is above 100 µM.
Take `COc1cc2oc(-c3ccc(O)cc3)c(OC3OC(C)C(O)C(O)C3O)c(=O)c2c(O)c1OC` (stereo not drawn): the TGI was above 100 µM.
Still for that read-out and setting: the result for `CCCCc1c(O)nc(Nc2nc3ccccc3[nH]2)[nH]c1=O` reads above 100 µM; that for `O=C1CC2(C[C@@H]3CCCCCCCCC[C@@H](C3)C2)N1` (stereo partly drawn), 34.6 µM; that for `Cc1c(S(=O)(=O)c2ccccc2)c(N)n(Cc2ccccc2)c1C`, above 100 µM.
`N#CC1=C(N)OC2=C(CSc3ccccc32)C1c1ccc(Br)cc1` (stereo not drawn) yielded a TGI of 44.6 µM.
With `CC(C)(C)OC(=O)NC(C)(C)C(=O)NCCC(=O)O`, the TGI is above 100 µM.
In turn, `C=CCN(CC=C)Cn1c(=S)sc2ccccc21` had a TGI above 100 µM.
Compound `O=C1O[C@@H](c2ccccc2)C[C@@H]1CN1CCOCC1` gave a TGI above 100 µM.
`CCOC(=O)c1c(NC(=O)c2ccccc2)sc2c1CCCC2`: the TGI is above 100 µM.
In the case of `CCOC(=O)C(OCC1CC=CCC1)Sc1ccccc1` (stereo not drawn), the TGI is above 100 µM.

A further experiment has as its system CAKI-1 renal. In words: inhibition of tumour cell growth, NCI panel, 48 h.
Turning to `Cc1ccc2c(c1)nc(N)n[n+]2[O-]`, the TGI is above 100 µM.
The same measure, in the same setting: the result for `Cc1cn(C2CC(N)C(CN)O2)c(=O)[nH]c1=O` (stereo not drawn) reads above 100 µM; that for `CC(C)CC(N)C(=O)OCN1C(=O)C2C3C=CC(C2C1=O)C1C2C(=O)N(COC(=O)C(N)CC(C)C)C(=O)C2C31` (stereo not drawn), above 100 µM; that for `O=C1CC(O)c2c1csc2Br` (stereo not drawn), above 100 µM.
For the compound `CCCCCCCCCC[C@@H](O)[C@H]1CC[C@H]([C@H]2CC[C@H]([C@H](O)CCCCCCCCCC[C@@H]3CC(CC(C)=O)C(=O)O3)O2)O1` (stereo partly drawn), the TGI is above 50 µM.
Take `CC(C)(C)C(=O)C(CC(=O)c1ccccc1)C(=O)C(C)(C)C`: the TGI is above 100 µM.
In turn, `COC(=O)c1cc(CC(C)C)c2c(c1)[nH]c1ccccc12` showed a TGI above 100 µM.
`Clc1nc(Cl)nc(NC23CC4CC(CC(C4)C2)C3)n1`: the TGI was determined as 21.7 µM.
With `CCOC(=O)c1cc2c([N+](=O)[O-])c(NC(C)=O)ccc2s1`, the TGI was above 100 µM.
Take `C[N+](C)(C)CC(=O)N/N=c1\cc(C(=O)Nc2ccc(N=O)cc2C#N)oc2cc(O)ccc12`: the TGI is above 100 µM.
Consider `CCOC(=O)c1cc(=C2\CCN(CC(C)CC)C2=S)/c(=C(/O)CC)[nH]1` (stereo not drawn), for which the TGI is 26.4 µM.
`Cc1ccc2c(c1C)CC1(Cc3c(ccc4c3CCC4)C1=O)C2=O` (stereo not drawn) showed a TGI above 100 µM.
On the same count and under the same terms, the result for `N#CCCN(c1ccc(C=Nc2cccc([N+](=O)[O-])c2)cc1)S(=O)(=O)c1ccccc1` reads above 100 µM; that for `COc1cc2oc(-c3ccc(O)cc3)c(OC3OC(C)C(O)C(O)C3O)c(=O)c2c(O)c1OC` (stereo not drawn), above 100 µM; that for `CCCCc1c(O)nc(Nc2nc3ccccc3[nH]2)[nH]c1=O`, above 100 µM.
With `O=C1CC2(C[C@@H]3CCCCCCCCC[C@@H](C3)C2)N1` (stereo partly drawn), the TGI is 25.4 µM.
`Cc1c(S(=O)(=O)c2ccccc2)c(N)n(Cc2ccccc2)c1C`: the TGI is above 100 µM.
Turning to `N#CC1=C(N)OC2=C(CSc3ccccc32)C1c1ccc(Br)cc1` (stereo not drawn), the TGI worked out at 26.4 µM.
In the case of `CC(C)(C)OC(=O)NC(C)(C)C(=O)NCCC(=O)O`, the TGI was above 100 µM.
`COc1ccc(C2C(Cl)C(=O)N2NC(=O)c2ccc(NC(C)=O)cc2)cc1` (stereo not drawn) yielded a TGI above 100 µM.
The compound `C=CCN(CC=C)Cn1c(=S)sc2ccccc21` displayed a TGI of 30.7 µM.
In the case of `O=C1O[C@@H](c2ccccc2)C[C@@H]1CN1CCOCC1`, the TGI was above 100 µM.
Regarding `CCOC(=O)c1c(NC(=O)c2ccccc2)sc2c1CCCC2`, the TGI was above 100 µM.
In turn, `CCOC(=O)C(OCC1CC=CCC1)Sc1ccccc1` (stereo not drawn) had a TGI above 100 µM.
For `c1cc(-c2cnc(-c3ccc4c(c3)CCCO4)o2)ccn1`, the TGI came out at 41.5 µM.

The subject of a further experiment is TK-10 renal. In words: inhibition of tumour cell growth, NCI panel, 48 h.
With `Cc1ccc2c(c1)nc(N)n[n+]2[O-]`, the TGI is above 100 µM.
Consider `Cc1cn(C2CC(N)C(CN)O2)c(=O)[nH]c1=O` (stereo not drawn), for which the TGI was above 100 µM.
`CC(C)CC(N)C(=O)OCN1C(=O)C2C3C=CC(C2C1=O)C1C2C(=O)N(COC(=O)C(N)CC(C)C)C(=O)C2C31` (stereo not drawn) gave a TGI above 100 µM.
The compound `O=C1CC(O)c2c1csc2Br` (stereo not drawn) displayed a TGI of 38.2 µM.
Take `CCCCCCCCCC[C@@H](O)[C@H]1CC[C@H]([C@H]2CC[C@H]([C@H](O)CCCCCCCCCC[C@@H]3CC(CC(C)=O)C(=O)O3)O2)O1` (stereo partly drawn): the GI50 is 2.33 µM and the TGI was above 50 µM.
As for `CC(C)(C)C(=O)C(CC(=O)c1ccccc1)C(=O)C(C)(C)C`, the TGI is above 100 µM.
For `COC(=O)c1cc(CC(C)C)c2c(c1)[nH]c1ccccc12`, the TGI is above 100 µM.
Consider `Clc1nc(Cl)nc(NC23CC4CC(CC(C4)C2)C3)n1`, for which the TGI is 32.6 µM.
For `CCOC(=O)c1cc2c([N+](=O)[O-])c(NC(C)=O)ccc2s1`, the TGI is above 100 µM.
`C[N+](C)(C)CC(=O)N/N=c1\cc(C(=O)Nc2ccc(N=O)cc2C#N)oc2cc(O)ccc12` yielded a TGI above 100 µM.
`CCOC(=O)c1cc(=C2\CCN(CC(C)CC)C2=S)/c(=C(/O)CC)[nH]1` (stereo not drawn) came in with a TGI of 28.6 µM.
Still for that read-out and setting: then `Cc1ccc2c(c1C)CC1(Cc3c(ccc4c3CCC4)C1=O)C2=O` (stereo not drawn), with above 100 µM.
Compound `N#CCCN(c1ccc(C=Nc2cccc([N+](=O)[O-])c2)cc1)S(=O)(=O)c1ccccc1` gave a TGI above 100 µM.
In turn, `COc1cc2oc(-c3ccc(O)cc3)c(OC3OC(C)C(O)C(O)C3O)c(=O)c2c(O)c1OC` (stereo not drawn) displayed a TGI above 100 µM.
In turn, `CCCCc1c(O)nc(Nc2nc3ccccc3[nH]2)[nH]c1=O` displayed a TGI above 100 µM.
`O=C1CC2(C[C@@H]3CCCCCCCCC[C@@H](C3)C2)N1` (stereo partly drawn) came in with a TGI of 31.2 µM.
With `Cc1c(S(=O)(=O)c2ccccc2)c(N)n(Cc2ccccc2)c1C`, the TGI is above 100 µM.
In the case of `N#CC1=C(N)OC2=C(CSc3ccccc32)C1c1ccc(Br)cc1` (stereo not drawn), the TGI came to 31.2 µM.

For the origin of these results see PubChem BioAssay (NCI).
